Results published in PMC11106739, “Discovery and Derivatization of Tridecaptin Antibiotics with Altered Host Specificity and Enhanced Bioactivity” (ACS Chemical Biology, 2024).
Values after ≈ are worked out from the molar mass of the structure shown. Where a SMILES comes first, the peptide text is derived from it. [ ]: non-standard residue; d: D form. The star is where a group is joined. d(aIle) = CC[C@H](C)[C@@H](N)C(=O)O; dDab = NCC[C@@H](N)C(=O)O; Octanoyl = CCCCCCCC(=O)*; Dab = NCC[C@H](N)C(=O)O

Assays:
S. aureus 1126387 = type: cell-based, Staphylococcus aureus; conditions: 1126387, 20 h
Method in brief: (§1)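 MIC was scored by eye after plates incubated for 20 h at 35 °C. Wells held cation-adjusted Mueller Hinton broth, compound at 0.06 to 64 μg/mL final, and a target inoculum of 2 × 10^5 CFU/mL, following CLSI guidance.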

S. aureus ATCC 29213 [1] = type: cell-based, Staphylococcus aureus; conditions: ATCC 29213, 20 h
Method in brief: as §1

S. aureus UAMS-1625 = type: cell-based, Staphylococcus aureus; conditions: S. aureus UAMS-1625 (BV18); CLSI broth dilution, cation-adjusted Mueller Hinton broth, 20 h, 35 °C, read visually
Method in brief: as §1

ATCC 25922 = type: cell-based, Enterococcus faecalis; conditions: ATCC 25922, 20 h
Method in brief: as §1

E. faecalis ATCC 29212 = type: cell-based, Enterococcus faecalis; conditions: ATCC 29212, 20 h
Method in brief: as §1

E. faecium ATCC 51559 = type: cell-based, Enterococcus faecium; conditions: ATCC 51559, 20 h
Method in brief: as §1

E. faecium IHMA 890472 = type: cell-based, Enterococcus faecium; conditions: IHMA 890472, 20 h
Method in brief: as §1

A. baumannii ATCC 17978 = type: cell-based, Acinetobacter baumannii; conditions: ATCC 17978, 20 h
Method in brief: as §1

A. baumannii HUMC1 = type: cell-based, Acinetobacter baumannii; conditions: HUMC1, 20 h
Method in brief: as §1

A. baumannii IHMA 777621 = type: cell-based, Acinetobacter baumannii; conditions: IHMA 777621, 20 h
Method in brief: as §1

E. coli 1214245 = type: cell-based, Escherichia coli; conditions: 1214245, 20 h
Method in brief: as §1

E. coli 1220120 = type: cell-based, Escherichia coli; conditions: 1220120, 20 h
Method in brief: as §1

E. coli ATCC 25922 = type: cell-based, Escherichia coli; conditions: ATCC 25922, 20 h
Method in brief: as §1

K. pneumoniae 1227947 = type: cell-based, Klebsiella pneumoniae; conditions: 1227947, 20 h
Method in brief: as §1

K. pneumoniae 1228586 = type: cell-based, Klebsiella pneumoniae; conditions: 1228586, 20 h
Method in brief: as §1

K. pneumoniae ATCC 13883 = type: cell-based, Klebsiella pneumoniae; conditions: ATCC 13883, 20 h
Method in brief: as §1

P. aeruginosa 1218019 = type: cell-based, Pseudomonas aeruginosa; conditions: 1218019, 20 h
Method in brief: as §1

P. aeruginosa 1226072 = type: cell-based, Pseudomonas aeruginosa; conditions: 1226072, 20 h
Method in brief: as §1

P. aeruginosa PAO1 = type: cell-based, Pseudomonas aeruginosa; conditions: PAO1, 20 h
Method in brief: as §1

S. aureus USA300 (MRSA) = type: cell-based, Staphylococcus aureus; conditions: USA300, 18 h
[2] = test system: Gram-positive lipid II / S. aureus USA300 (MRSA); assay: Lipid II antagonization assay; type: cell-based, Staphylococcus aureus; conditions: compound at 8x MIC, 5-fold molar excess of Gram-positive lipid II, MHB with 0.002% polysorbate-80, 37 °C, 18 h, resazurin, triplicates
Description: Laboratory Institute (CLSI) guidelines. Gram-positive lipid II, containing lysine at position 3 of the pentapeptide, was prepared by total chemical synthesis.1,2 Lipid II in 1 : 1 chloroform : methanol (v/v) was added to a polypropylene 96-well plate (5-fold molar excess compared to test antibiotics) and the organic solvent was allowed to evaporate. Oct-TriA5 and vancomycin in MHB (50 µL, 16xMIC) were added to the wells with the 5-fold molar excess of pure Gram-positive lipid II in triplicates and to the control wells without lipid II. Single colony of S. aureus USA300 (MRSA) from a fresh blood agar plate was suspended in TSB and grown to an OD600 of 0.5. The bacterial culture then was diluted in MHB with 0.002% polysorbate-80 to reach 10^6 CFU/mL and 50 µL were mixed with test compounds to achieve the final concentration of 8xMIC for all tested compounds. The plate was incubated at 37°C for 18 h with constant shaking (600 rpm) and subsequently inspected for visible bacterial growth. To visualize the viability of the indicator strain, resazurin sodium salt solution (Merck, Dorset, UK) was added to the cultures to achieve the final concentration of 0.0015% (w/v) and incubated at RT for 1 h.
Figure S4. HPLC trace showing the reinjection of purified Oct-TriD (3). The peptide eluted as a single peak at 17.263 min using the HPLC method A.
Figure S5. […]

S. aureus ATCC 29213 [3] = assay: LIVE/DEAD staining (SYTO 9 / propidium iodide); type: cell-based, Staphylococcus aureus; conditions: S. aureus ATCC 29213, 1 × MIC, 15 min, microscopy
Description: This assay was performed according to a previously described procedure.[55],[56] Briefly, overnight cultures of E. coli ATCC 25922 and S. aureus ATCC 29213 were diluted to an OD600 of 0.2 in MHB and mixed with 1 × MIC of Oct-TriA1, Oct-TriA5, and Oct-TriD. Nisin and polymyxin B were used as positive controls at a concentration of 2-fold MIC. At the same time, green fluorescent nucleic acid stain SYTO 9 (excitation, 450–490 nm; emission, 500–550 nm) and red fluorescent nucleic acid stain propidium iodide (excitation, 574–599 nm; emission, 612–682 nm) (LIVE/DEAD Baclight Bacterial Viability Kit, Invitrogen) were added to the above cell suspensions. After mixing and incubating for 15 min in the dark at RT, cells were briefly sedimented via centrifugation and resuspended in fresh MHB. Then, the cell suspensions were loaded on 1.5% agarose pads and analyzed by a Zeiss Imager M2 microscope. Confocal images were obtained at 4 random locations for each sample and visualized using FIJI version 1.51H.[57]

[4] = test system: Gram-negative ESKAPE pathogens; type: cell-based; conditions: 20 h
Description: All minimum inhibitory concentrations (MICs) were determined according to the Clinical and Standards Laboratory Institute (CLSI) guidelines. In brief, agar plates were inoculated from glycerol stocks and incubated overnight at 35 °C. Peptide DMSO stocks were dispensed into 96-well round-bottom plates using a TECAN D300e dispenser. Colistin sulfate (Sigma-Aldrich) was dissolved in water and serially diluted in a cation-adjusted Mueller Hinton broth (10 μL per well). Final concentrations of the test compounds were 0.06 to 64 μg/mL. Inocula were prepared by direct colony suspension in NaCl at 0.5 MacFarland, which was further diluted 200-fold in cation-adjusted Mueller Hinton broth for a target inoculum of 2 × 10^5 colony forming units (CFUs)/mL. 100 μL portion of the prepared inoculum was added to each well of the prepared plates containing the test compounds. Plates were sealed with parafilm and incubated for 20 h at 35 °C. Images of all plates were recorded, and MIC was assessed visually.

SMILES	MIC (S. aureus 1126387) [µg/mL]	MIC (S. aureus ATCC 29213 [1]) [µg/mL]	MIC (S. aureus UAMS-1625) [µg/mL]	MIC (ATCC 25922) [µg/mL]	MIC (E. faecalis ATCC 29212) [µg/mL]	MIC (E. faecium ATCC 51559) [µg/mL]	MIC (E. faecium IHMA 890472) [µg/mL]	MIC (A. baumannii ATCC 17978) [µg/mL]	MIC (A. baumannii HUMC1) [µg/mL]	MIC (A. baumannii IHMA 777621) [µg/mL]	MIC (E. coli 1214245) [µg/mL]	MIC (E. coli 1220120) [µg/mL]	MIC (E. coli ATCC 25922) [µg/mL]	MIC (K. pneumoniae 1227947) [µg/mL]	MIC (K. pneumoniae 1228586) [µg/mL]	MIC (K. pneumoniae ATCC 13883) [µg/mL]	MIC (P. aeruginosa 1218019) [µg/mL]	MIC (P. aeruginosa 1226072) [µg/mL]	MIC (P. aeruginosa PAO1) [µg/mL]	LIVE/DEAD staining, membrane integrity of S. aureus cells (S. aureus ATCC 29213 [3])	further results
CCCCCCCC(=O)N[C@@H](C(=O)N[C@H](CCN)C(=O)NCC(=O)N[C@H](CO)C(=O)N[C@H](Cc1c[nH]c2ccccc12)C(=O)N[C@@H](CO)C(=O)N[C@@H](CCN)C(=O)N[C@H](CCN)C(=O)N[C@@H](Cc1c[nH]c2ccccc12)C(=O)N[C@@H](CCC(=O)O)C(=O)N[C@H](C(=O)N[C@@H](C(=O)N[C@@H](C)C(=O)O)[C@@H](C)CC)C(C)C)C(C)C [Oct-TriA5] (Octanoyl-[dV][dDab]G[dS][dW]S[Dab][dDab]WEV[d(aIle)]A-OH)	8 (≈ 5.13 µM)	8 (≈ 5.13 µM)	8 (≈ 5.13 µM)	8 (≈ 5.13 µM)	8 (≈ 5.13 µM)	8 (≈ 5.13 µM)	8 (≈ 5.13 µM)	4 (≈ 2.56 µM)	8 (≈ 5.13 µM)	4 (≈ 2.56 µM)	4 (≈ 2.56 µM)	4 (≈ 2.56 µM)	2 (≈ 1.28 µM)	4 (≈ 2.56 µM)	4 (≈ 2.56 µM)	4 (≈ 2.56 µM)	4 (≈ 2.56 µM)	8 (≈ 5.13 µM)	16 (≈ 10.3 µM)	had lysed	MIC (S. aureus USA300 (MRSA)): 8 µg/mL (≈ 5.13 µM); growth of S. aureus USA300 (MRSA) after addition of lipid II [2]: not inhibited; MICs, range over Gram-negative pathogens [4]: 2 to 16 µg/mL
CN[C@H](CC(C)C)C(=O)N[C@H]1C(=O)N[C@@H](CC(N)=O)C(=O)N[C@H]2C(=O)N[C@H]3C(=O)N[C@H](C(=O)N[C@H](C(=O)O)c4cc(O)cc(O)c4-c4cc3ccc4O)[C@H](O)c3ccc(c(Cl)c3)Oc3cc2cc(c3O[C@@H]2O[C@H](CO)[C@@H](O)[C@H](O)[C@H]2O[C@H]2C[C@](C)(N)[C@H](O)[C@H](C)O2)Oc2ccc(cc2Cl)[C@H]1O [vancomycin, reference compound]	–	–	–	–	–	–	–	–	–	–	–	–	–	–	–	–	–	–	–	–	growth of S. aureus USA300 (MRSA) after addition of lipid II [2]: not inhibited
CCCCCCCC(=O)N[C@H](Cc1ccccc1)C(=O)N[C@H](CCN)C(=O)N[C@@H](C(=O)N[C@H](CO)C(=O)N[C@H](Cc1c[nH]c2ccccc12)C(=O)N[C@@H](CO)C(=O)N[C@@H](CO)C(=O)N[C@H](CCN)C(=O)N[C@@H](Cc1c[nH]c2ccccc12)C(=O)N[C@@H](CO)C(=O)N[C@H](C(=O)N[C@@H](C(=O)N[C@@H](CCN)C(=O)O)[C@@H](C)CC)C(C)C)[C@H](C)CC [Oct-TriD] (Octanoyl-[dF][dDab][dI][dS][dW]SS[dDab]WSV[d(aIle)][Dab]-OH)	16 (≈ 9.77 µM)	8 (≈ 4.88 µM)	16 (≈ 9.77 µM)	8 (≈ 4.88 µM)	8 (≈ 4.88 µM)	4 (≈ 2.44 µM)	4 (≈ 2.44 µM)	16 (≈ 9.77 µM)	16 (≈ 9.77 µM)	8 (≈ 4.88 µM)	16 (≈ 9.77 µM)	16 (≈ 9.77 µM)	32 (≈ 19.5 µM)	>64	64 (≈ 39.1 µM)	8 (≈ 4.88 µM)	32 (≈ 19.5 µM)	32 (≈ 19.5 µM)	>64	had lysed	–
CCCCCCCC(=O)N[C@@H](C(=O)N[C@H](CCN)C(=O)NCC(=O)N[C@H](CO)C(=O)N[C@H](Cc1c[nH]c2ccccc12)C(=O)N[C@@H](CO)C(=O)N[C@@H](CCN)C(=O)N[C@H](CCN)C(=O)N[C@@H](Cc1ccccc1)C(=O)N[C@@H](CCC(=O)O)C(=O)N[C@H](C(=O)N[C@@H](C(=O)N[C@@H](C)C(=O)O)[C@@H](C)CC)C(C)C)C(C)C [Oct-TriA1] (Octanoyl-[dV][dDab]G[dS][dW]S[Dab][dDab]FEV[d(aIle)]A-OH)	32 (≈ 21 µM)	32 (≈ 21 µM)	32 (≈ 21 µM)	32 (≈ 21 µM)	32 (≈ 21 µM)	32 (≈ 21 µM)	16 (≈ 10.5 µM)	8 (≈ 5.26 µM)	16 (≈ 10.5 µM)	8 (≈ 5.26 µM)	2 (≈ 1.32 µM)	2 (≈ 1.32 µM)	2 (≈ 1.32 µM)	4 (≈ 2.63 µM)	4 (≈ 2.63 µM)	4 (≈ 2.63 µM)	4 (≈ 2.63 µM)	8 (≈ 5.26 µM)	64 (≈ 42.1 µM)	still alive	–
